Experiments:
Type in all cases: in vivo, rat
[1] = test system: carrageenin-induced hyperalgesia model; test: Carrageenin-induced hyperalgesia model (escape latency, plantar test); conditions: male SD rats, oral 3, 10 and 30 mg/kg 1 hour before carrageenin, 3 hours after injection
Experimental: An analgesic effect of the compound of the present invention to carrageenin-induced hyperalgesia model which was an acute inflammation pain model was investigated as follows using escape latency as an index. Male rats of an SD strain of seven weeks age were used. Thermal stimulation was irradiated to right hind leg of each rat using a measuring device for a plantar test and the time until escape raising the leg was measured and used as the escape latency. Depending upon the escape latency, grouping was conducted where each group comprised 7 to 8 rats and each of the compound of the present invention (3, 10 and 30 mg/kg) and a 0.5% aqueous solution of methyl cellulose (5 mL/kg) as a control was orally administered. After 1 hour from the oral administration of a test substance, carrageenin (2 mg/100 μL) dissolved in a physiological saline was subcutaneously injected to the sole of right hind leg of the rat. The escape latency during 3 hours after injection of carrageenin was measured.

[2] = test system: pollakiuria model induced by sulprostone; test: Pollakiuria model induced by sulprostone (urination frequency); conditions: male Crj: CD (SD) IGS rats, oral 3, 10, 30 and 100 mg/kg 0.5 hour before sulprostone s.c., 3 hours measurement
Experimental: A suppressive action of the compound of the present invention to a pollakiuria model induced by sulprostone was investigated as follows. Male Crj: CD (SD) IGS rats of body weight of about 300 g were used. Each of the compound of the present invention (3, 10, 30 and 100 mg/kg) and a 0.5% aqueous solution of methyl cellulose (5 mL/kg) as a control was orally administered. After 0.5 hour from oral administration of a test substance, sulprostone (0.2 mg/4 mL/kg) was subcutaneously administered. As a non-induced group, a 0.5% aqueous solution of methyl cellulose was orally administered and, after […], a physiological saline was subcutaneously administered. Measurement of urination was conducted from immediately after administration of sulprostone until 3 hours thereafter. Measurement of urination was done in such a manner that, under the condition of giving neither feed nor water, the animals were placed in a metabolic cage equipped with a urine measuring device and weight of the collected urine with a lapse of time was recorded using a data-collecting system. Incidentally, case numbers for each group were made 3 to 4 cases.

[3] = test system: adjuvant-induced arthritis model; test: Pain reaction of adjuvant-induced arthritis model (squeaking reaction); conditions: Lewis male rats, oral, 1, 3, 10 and 30 mg/kg, observed 1-4 hours after administration
Experimental: A suppressive effect of the compound of the present invention to pain reaction of an adjuvant-induced arthritis model which is a pain model for chronic arthritis was investigated as follows using a squeaking reaction as an index. Lewis male rats of seven weeks age were used. After volume of the left hind leg of each rat was measured, 600 μg/100 μL of dried cells of Mycobacterium butyricum (Difco) suspended in liquid paraffin was injected as an adjuvant into paw skin of a right hind leg to prepare an adjuvant-arthritis rat. After 22 days from injection of the adjuvant, bending and stretching of a knee joint of the left hind leg were conducted for five times before oral administration of a test substance and the rats which squeaked for all of the five times were subjected to the experiment. Depending upon the volume of edema of left hind leg on the previous day, grouping was conducted where one group comprised ten rats. Each of the compound of the present invention (1, 3, 10 and 30 mg/kg) and a 0.5% aqueous solution of methyl cellulose (5 mL/kg) as a control was orally administered. An analgesic action was observed after 1, 2, 3 and 4 hour(s) from the administration.

## Cc1cc(C)cc([C@@H](CC(C)C)NC(=O)c2cc(COc3cc(F)ccc3C)ccc2CCC(=O)O)c1 [compound (I), 3-(2-((((1R)-1-(3,5-dimethylphenyl)-3-methylbutyl)amino)carbonyl)-4-(5-fluoro-2-methylphenoxymethyl)phenyl)propanoic acid]
[1]
  dose as from which escape latency was significantly high as compared with the control group: not more than 10 mg/kg
[2]
  dose as from which urination frequency showed low values: not more than 30 mg/kg
[3]
  dose as from which individual positive for the analgesic action was noted: ≤ 10 mg/kg
